biological target: GST tagged truncated human mutant G2019S LRRK2 (Homo sapiens (Human), UniProt Q5S007, G2019S); test: LRRK2 Km ATP LanthaScreen Assay; format: biochemical; details: G2019S LRRK2, 134 μM ATP (Km ATP), mean values
Outline: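 Enzyme (GST-tagged, truncated) was preincubated with compound for 15 min at RT in 50 mM Tris pH 8.5, 10 mM MgCl2, 0.01% Brij-35, 1 mM EGTA, 2 mM DTT and 0.05 mM orthovanadate. Fluorescein-LRRKtide and 134 μM ATP (Km) were then added for 90 min. EDTA and Tb-anti-pERM antibody stopped the reaction; the TR-FRET 520/495 ratio gave 4-parameter IC50s, reported as mean pIC50.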

GST tagged truncated human mutant G2019S LRRK2, sequence (Q5S007 970-2527 G2019S): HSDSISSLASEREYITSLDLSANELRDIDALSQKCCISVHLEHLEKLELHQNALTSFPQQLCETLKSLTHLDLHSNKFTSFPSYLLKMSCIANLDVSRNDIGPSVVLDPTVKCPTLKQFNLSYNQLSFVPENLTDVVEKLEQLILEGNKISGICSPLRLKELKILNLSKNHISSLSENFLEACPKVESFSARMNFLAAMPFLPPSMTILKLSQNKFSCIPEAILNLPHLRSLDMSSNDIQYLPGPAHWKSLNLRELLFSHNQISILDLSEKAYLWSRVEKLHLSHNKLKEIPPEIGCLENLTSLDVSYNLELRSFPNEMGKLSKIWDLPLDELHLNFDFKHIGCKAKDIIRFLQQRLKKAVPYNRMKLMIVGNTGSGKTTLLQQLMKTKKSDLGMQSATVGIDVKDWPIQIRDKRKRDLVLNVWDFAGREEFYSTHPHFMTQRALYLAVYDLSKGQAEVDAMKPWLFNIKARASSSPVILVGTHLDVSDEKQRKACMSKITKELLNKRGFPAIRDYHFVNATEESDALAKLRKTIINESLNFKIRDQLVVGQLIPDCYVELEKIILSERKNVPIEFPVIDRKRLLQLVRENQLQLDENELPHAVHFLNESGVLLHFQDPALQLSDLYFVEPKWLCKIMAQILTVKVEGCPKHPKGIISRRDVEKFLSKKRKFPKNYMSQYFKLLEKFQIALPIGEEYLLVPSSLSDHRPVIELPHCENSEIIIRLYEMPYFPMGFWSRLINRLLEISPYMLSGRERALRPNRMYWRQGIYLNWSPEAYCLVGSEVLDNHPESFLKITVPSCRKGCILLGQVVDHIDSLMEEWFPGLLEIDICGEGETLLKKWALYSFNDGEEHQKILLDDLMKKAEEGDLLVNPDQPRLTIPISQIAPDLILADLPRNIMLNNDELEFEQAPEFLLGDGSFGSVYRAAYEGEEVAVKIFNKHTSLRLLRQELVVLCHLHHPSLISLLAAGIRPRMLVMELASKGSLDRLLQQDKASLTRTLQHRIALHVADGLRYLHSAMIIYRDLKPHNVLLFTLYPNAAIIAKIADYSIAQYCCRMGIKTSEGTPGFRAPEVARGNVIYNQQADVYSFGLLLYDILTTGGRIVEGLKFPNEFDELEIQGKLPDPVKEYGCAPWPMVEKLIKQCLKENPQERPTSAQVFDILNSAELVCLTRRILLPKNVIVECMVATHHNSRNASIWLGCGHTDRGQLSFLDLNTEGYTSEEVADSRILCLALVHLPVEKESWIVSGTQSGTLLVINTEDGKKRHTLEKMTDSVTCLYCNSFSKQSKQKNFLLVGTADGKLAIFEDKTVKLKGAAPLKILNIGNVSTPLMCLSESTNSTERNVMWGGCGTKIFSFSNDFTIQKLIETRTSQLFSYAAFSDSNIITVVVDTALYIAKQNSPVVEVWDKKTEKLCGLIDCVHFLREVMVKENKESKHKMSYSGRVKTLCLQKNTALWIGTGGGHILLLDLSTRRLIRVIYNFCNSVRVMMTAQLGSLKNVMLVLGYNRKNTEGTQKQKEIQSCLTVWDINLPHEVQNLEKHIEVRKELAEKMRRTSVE

SMILES	LRRK2 pIC50
Cc1c(Nc2ncc3cc(Cl)c([C@@H]4CCN(C5COC[C@H]5O)C[C@H]4F)cc3n2)cnn1C1CC1 (single isomer, unassigned) [Ex-4.128, (3S,4S)(3S,4S) or (3S,4S)(3R,4R) or (3R,4R)(3S,4S) or (3R,4R)(3R,4R) 4-[4-{6-chloro-2-[(1-cyclopropyl-5-methyl-1H-pyrazol-4-yl)amino]quinazolin-7-yl}-3-fluoropiperidin-1-yl]oxolan-3-ol]	8.99
Cc1c(Nc2ncc3cc(Cl)c(C4CCN(C5COC[C@H]5O)[C@@H](C)C4)cc3n2)cnn1C1CC1 (single isomer, unassigned) [Ex-4.129, (3S,4S)(2S,4R) or (3S,4S)(2S,4S) or (3R,4R)(2S,4R) or (3R,4R)(2S,4S) (3 4-[4-{6-chloro-2-[(1-cyclopropyl-5-methyl-1H-pyrazol-4-yl)amino]quinazolin-7-yl}-2-methylpiperidin-1-yl]oxolan-3-ol]	>9.20
Cc1c(Nc2ncc3cc(Cl)c(C4CCN(C5COC[C@@H]5O)[C@@H](C)C4)cc3n2)cnn1C1CC1 (single isomer, unassigned) [Ex-4.130, (3S,4S)(2S,4R) or (3S,4S)(2S,4S) or (3R,4R)(2S,4R) or (3R,4R)(2S,4S) (3 4-[4-{6-chloro-2-[(1-cyclopropyl-5-methyl-1H-pyrazol-4-yl)amino]quinazolin-7-yl}-2-methylpiperidin-1-yl]oxolan-3-ol]	8.97
Cc1c(Nc2ncc3cc(Cl)c(C4CCN([C@@H]5COC[C@@H]5O)CC4)cc3n2)cnn1C1CC1 (single isomer, unassigned) [Ex-4.131, (3S,4S) or (3R,4R) 4-(4-{6-chloro-2-[(1-cyclopropyl-5-methyl-1H-pyrazol-4-yl)amino]quinazolin-7-yl}piperidin-1-yl)oxolan-3-ol]	8.62
Cc1c(Nc2ncc3cc(Cl)c(C4CCN([C@H]5COC[C@H]5O)CC4)cc3n2)cnn1C1CC1 (single isomer, unassigned) [Ex-4.132, (3S,4S) or (3R,4R) 4-(4-{6-chloro-2-[(1-cyclopropyl-5-methyl-1H-pyrazol-4-yl)amino]quinazolin-7-yl}piperidin-1-yl)oxolan-3-ol]	>9.20
Cc1c(Nc2ncc3cc(Cl)c(C4CCN(C5COC5C)CC4)cc3n2)cnn1C(C)(C)C#N (single isomer, unassigned) [Ex-4.133, (2R,3R) or (2S,3S) or (2S,3R) or (2R,3S) 2-[4-({6-chloro-7-[1-(2-methyloxetan-3-yl)piperidin-4-yl]quinazolin-2-yl}amino)-5-methyl-1H-pyrazol-1-yl]-2-methylpropanenitrile]	8.92
Cc1c(Nc2ncc3cc(Cl)c(C4CCN(C5COC5C)CC4)cc3n2)cnn1C(C)(C)C#N (single isomer, unassigned) [Ex-4.134, (2R,3R) or (2S,3S) or (2S,3R) or (2R,3S) 2-[4-({6-chloro-7-[1-(2-methyloxetan-3-yl)piperidin-4-yl]quinazolin-2-yl}amino)-5-methyl-1H-pyrazol-1-yl]-2-methylpropanenitrile]	>9.20
Cc1cc2cnc(Nc3cnn(C4CC4)c3Cl)nc2cc1[C@@H]1CCN(C2COC[C@@H]2O)C[C@H]1F (single isomer, unassigned) [Ex-4.135, (3S,4S)(3S,4S) or (3S,4S)(3R,4R) or (3R,4R)(3S,4S) or (3R,4R)(3R,4R) 4-(4-{2-[(5-chloro-1-cyclopropyl-1H-pyrazol-4-yl)amino]-6-methylquinazolin-7-yl}-3-fluoropiperidin-1-yl)oxolan-3-ol]	>9.20
Cc1cc2cnc(Nc3cnn(C4CC4)c3Cl)nc2cc1[C@@H]1CCN(C2COC[C@H]2O)C[C@H]1F (single isomer, unassigned) [Ex-4.136, (3S,4S)(3S,4S) or (3S,4S)(3R,4R) or (3R,4R)(3S,4S) or (3R,4R)(3R,4R) 4-(4-{2-[(5-chloro-1-cyclopropyl-1H-pyrazol-4-yl)amino]-6-methylquinazolin-7-yl}-3-fluoropiperidin-1-yl)oxolan-3-ol]	8.41
Cc1cc2cnc(Nc3cnn(C4CC4(F)F)c3Cl)nc2cc1[C@@H]1CCN(C2COC[C@@H]2O)C[C@H]1F (single isomer, unassigned) [Ex-4.137, (R)(3S,4S)(3S,4S) or (R)(3S,4S)(3R,4R) or (R)(3R,4R)(3S,4S) or (R)(3R,4R)(3R,4R) or (S)(3S,4S)(3S,4S) or (S)(3S,4S)(3R,4R) or (S)(3R,4R)(3S,4S) or (S)(3R,4R)(3R,4R) 4-[4-(2-{[5-chloro-1-(2,2-difluorocyclopropyl)-1H-pyrazol-4-yl]amino}-6-methylquinazolin-7-yl)-3-fluoropiperidin-1-yl]oxolan-3-ol]	>9.20
Cc1cc2cnc(Nc3cnn(C4CC4(F)F)c3Cl)nc2cc1[C@@H]1CCN(C2COC[C@H]2O)C[C@H]1F (single isomer, unassigned) [Ex-4.138, (R)(3S,4S)(3S,4S) or (R)(3S,4S)(3R,4R) or (R)(3R,4R)(3S,4S) or (R)(3R,4R)(3R,4R) or (S)(3S,4S)(3S,4S) or (S)(3S,4S)(3R,4R) or (S)(3R,4R)(3S,4S) or (S)(3R,4R)(3R,4R) 4-[4-(2-{[5-chloro-1-(2,2-difluorocyclopropyl)-1H-pyrazol-4-yl]amino}-6-methylquinazolin-7-yl)-3-fluoropiperidin-1-yl]oxolan-3-ol]	8.44
Cc1cc2cnc(Nc3cnn(C4CC4(F)F)c3Cl)nc2cc1[C@H]1CCN(C2COC[C@@H]2O)C[C@@H]1F (single isomer, unassigned) [Ex-4.139, (R)(3S,4S)(3S,4S) or (R)(3S,4S)(3R,4R) or (R)(3R,4R)(3S,4S) or (R)(3R,4R)(3R,4R) or (S)(3S,4S)(3S,4S) or (S)(3S,4S)(3R,4R) or (S)(3R,4R)(3S,4S) or (S)(3R,4R)(3R,4R) 4-[4-(2-{[5-chloro-1-(2,2-difluorocyclopropyl)-1H-pyrazol-4-yl]amino}-6-methylquinazolin-7-yl)-3-fluoropiperidin-1-yl]oxolan-3-ol]	>9.20
Cc1cc2cnc(Nc3cnn(C4CC4(F)F)c3Cl)nc2cc1[C@H]1CCN(C2COC[C@H]2O)C[C@@H]1F (single isomer, unassigned) [Ex-4.140, (R)(3S,4S)(3S,4S) or (R)(3S,4S)(3R,4R) or (R)(3R,4R)(3S,4S) or (R)(3R,4R)(3R,4R) or (S)(3S,4S)(3S,4S) or (S)(3S,4S)(3R,4R) or (S)(3R,4R)(3S,4S) or (S)(3R,4R)(3R,4R) 4-[4-(2-{[5-chloro-1-(2,2-difluorocyclopropyl)-1H-pyrazol-4-yl]amino}-6-methylquinazolin-7-yl)-3-fluoropiperidin-1-yl]oxolan-3-ol]	9.19
Cc1cc2cnc(Nc3cnn(C4CC4(F)F)c3C)nc2cc1C1CCN([C@H]2COC[C@H]2O)CC1 (single isomer, unassigned) [Ex-4.141, (R)(3S,4S) or (S)(3S,4S) or (R)(3R,4R) or (S)(3R,4R) 4-[4-(2-{[1-(2,2-difluorocyclopropyl)-5-methyl-1H-pyrazol-4-yl]amino}-6-methylquinazolin-7-yl)piperidin-1-yl]oxolan-3-ol]	>9.20
Cc1cc2cnc(Nc3cnn(C4CC4(F)F)c3C)nc2cc1C1CCN([C@@H]2COC[C@@H]2O)CC1 (single isomer, unassigned) [Ex-4.142, (R)(3S,4S) or (S)(3S,4S) or (R)(3R,4R) or (S)(3R,4R) 4-[4-(2-{[1-(2,2-difluorocyclopropyl)-5-methyl-1H-pyrazol-4-yl]amino}-6-methylquinazolin-7-yl)piperidin-1-yl]oxolan-3-ol]	8.94
Cc1cc2cnc(Nc3cnn(C4CC4(F)F)c3C)nc2cc1[C@@H]1CCN([C@H]2COC[C@H]2O)C[C@H]1F (single isomer, unassigned) [Ex-4.143, (R)(3S,4S)(3S,4S) or (R)(3S,4S)(3R,4R) or (R)(3R,4R)(3S,4S) or (R)(3R,4R)(3R,4R) or (S)(3S,4S)(3S,4S) or (S)(3S,4S)(3R,4R) or (S)(3R,4R)(3S,4S) or (S)(3R,4R)(3R,4R) 4-[4-(2-{[1-(2,2-difluorocyclopropyl)-5-methyl-1H-pyrazol-4-yl]amino}-6-methylquinazolin-7-yl)-3-fluoropiperidin-1-yl]oxolan-3-ol]	>9.20
Cc1cc2cnc(Nc3cnn(C4CC4(F)F)c3C)nc2cc1[C@@H]1CCN([C@@H]2COC[C@@H]2O)C[C@H]1F (single isomer, unassigned) [Ex-4.144, (R)(3S,4S)(3S,4S) or (R)(3S,4S)(3R,4R) or (R)(3R,4R)(3S,4S) or (R)(3R,4R)(3R,4R) or (S)(3S,4S)(3S,4S) or (S)(3S,4S)(3R,4R) or (S)(3R,4R)(3S,4S) or (S)(3R,4R)(3R,4R) 4-[4-(2-{[1-(2,2-difluorocyclopropyl)-5-methyl-1H-pyrazol-4-yl]amino}-6-methylquinazolin-7-yl)-3-fluoropiperidin-1-yl]oxolan-3-ol]	8.68
Cc1cc2cnc(Nc3cnn(C4CC4(F)F)c3Cl)nc2cc1[C@@H]1CCN([C@H]2COC[C@H]2O)C[C@H]1F (single isomer, unassigned) [Ex-4.145, (R)(3S,4S)(3S,4S) or (R)(3S,4S)(3R,4R) or (R)(3R,4R)(3S,4S) or (R)(3R,4R)(3R,4R) or (S)(3S,4S)(3S,4S) or (S)(3S,4S)(3R,4R) or (S)(3R,4R)(3S,4S) or (S)(3R,4R)(3R,4R) 4-[4-(2-{[5-chloro-1-(2,2-difluorocyclopropyl)-1H-pyrazol-4-yl]amino}-6-methylquinazolin-7-yl)-3-fluoropiperidin-1-yl]oxolan-3-ol]	>9.20

Reference: patent US12540131B2 (Merck Sharp & Dohme LLC, priority 2019, dated 2026)
